# Biological target: T1, P2X7 receptor (Homo sapiens, UniProt Q99572)
# T1 construct: stably expressing the full length P2X7 receptor; expressed in transfected cells
# T1 sequence (Q99572 1-595): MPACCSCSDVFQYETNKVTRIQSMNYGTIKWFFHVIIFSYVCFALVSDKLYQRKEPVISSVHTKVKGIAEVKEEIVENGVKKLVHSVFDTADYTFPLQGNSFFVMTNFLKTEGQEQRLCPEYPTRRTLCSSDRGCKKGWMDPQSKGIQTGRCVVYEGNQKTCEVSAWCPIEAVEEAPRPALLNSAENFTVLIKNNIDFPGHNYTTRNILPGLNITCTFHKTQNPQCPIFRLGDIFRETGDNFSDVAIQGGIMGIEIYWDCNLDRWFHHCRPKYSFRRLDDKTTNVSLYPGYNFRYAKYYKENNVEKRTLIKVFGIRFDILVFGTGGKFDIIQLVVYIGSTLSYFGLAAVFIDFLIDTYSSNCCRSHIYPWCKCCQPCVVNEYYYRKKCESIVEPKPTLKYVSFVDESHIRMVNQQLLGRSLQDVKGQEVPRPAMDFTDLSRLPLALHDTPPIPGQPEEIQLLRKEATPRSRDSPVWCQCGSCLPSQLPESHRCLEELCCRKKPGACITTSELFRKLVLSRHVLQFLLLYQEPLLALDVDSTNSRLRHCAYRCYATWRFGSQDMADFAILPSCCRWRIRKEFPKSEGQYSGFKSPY
# Assay: Ca++ flux assay (FLIPR) in P2X7-HEK-293 cell line stably expressing the full length P2X7 receptor, Bz-ATP activation
# Assay type: cell-based
# Settings: P2X7-HEK-293 cells; agonist Bz-ATP; fluorescence as total area over 90 seconds; read-out: P2X7 Ca Flux hu IC50
# Procedure: The ability of Triazolopyrazinone Compounds to inhibit P2X7 function can be determined in Ca^++ flux assay using a P2X7-HEK-293 cell line stably expressing the full length P2X7 receptor. The assay protocol is as described in Cheewatrakoolpong et al., Biochem. Biophys. Res. Commun. 332:17-27 (2005) with minor modification, and is as summarized hereinafter. Briefly, cells were plated in poly-D-lysine-coated wells, and incubated at 37° C. for 24 hours. Cells were then incubated for 1 hour with a loading buffer which contains a dye sensitive to changes in Ca^++ concentration (lx Calcium Plus no wash dye from Molecular Devices, Sunnyvale, Calif.). The test compounds were added to the wells in the dye loading step. Plates containing the wells were transferred to a Fluorometric Imaging Plate Reader (Molecular Devices, Sunnyvale, Calif.). The cells were activated by the addition of the P2X7 receptor agonist 2′(3) —O-(4-benzoylbenzoyl)adenosine 5′-triphosphate (Bz-ATP from Sigma-Aldrich, St. Louis, Mo.), and the fluorescence was monitored for 90 seconds. The fluorescent signal was determined as the total area over the 90 second run time. Using this protocol, representative Triazolopyrazinone Compounds, compounds 1471 were tested. Tables 3 to 6 show the concentration at which 50% of the maximum response in the Ca^++ was inhibited (IC50) for each of the test compounds.
row,SMILES,IC50
1,"Cc1c(Cl)cccc1-n1ccn2c(SCc3ccccc3N3CCN(C(=O)OC(C)(C)C)CC3)nnc2c1=O [Compound 31, tert-butyl 4-(2-((7-(3-chloro-2-methylphenyl)-8-oxo-7,8-dihydro-[1,2,4]triazolo[4,3-a]pyrazin-3-ylthio)methyl)phenyl)piperazine-1-carboxylate]",1170 nM
2,"Cc1c(Cl)cccc1-n1ccn2c(SCc3ccccc3N3CCOCC3)nnc2c1=O [Compound 32, 7-(3-chloro-2-methylphenyl)-3-(2-morpholinobenzylthio)-[1,2,4]triazolo[4,3-a]pyrazin-8(7H)-one]",553 nM
3,[2H]c1c([2H])c([2H])c(CSc2nnc3c(=O)n(-c4cccc(Cl)c4C)ccn23)c([2H])c1[2H] [Compound 33],85.7 nM
4,[2H]c1c([2H])c([2H])c(C([2H])([2H])Sc2nnc3c(=O)n(-c4cccc(Cl)c4C)ccn23)c([2H])c1[2H] [Compound 34],148 nM
5,"Cc1c(Cl)cccc1-n1ccn2c(SCc3ccccc3Cn3cncn3)nnc2c1=O [Compound 38, 3-(2-((1H-1,2,4-triazol-1-yl)methyl)benzylthio)-7-(3-chloro-2-methylphenyl)-[1,2,4]triazolo[4,3-a]pyrazin-8(7H)-one]",1440 nM
6,"Cc1c(Cl)cccc1-n1ccn2c(SCc3ccccc3CN3CCOCC3)nnc2c1=O [Compound 39, 7-(3-chloro-2-methylphenyl)-3-(2-(rnorpholinornethyl)benzylthio)-[1,2,4]triazolo[4,3-a]pyrazin-8(7H)-one]",636 nM
7,"Cc1c(Cl)cccc1-n1ccn2c(SCc3ccccc3C(C)C)nnc2c1=O [Compound 41, 7-(3-chloro-2-methylphenyl)-3-(2-isopropylbenzylthio)-[1,2,4]triazolo[4,3-a]pyrazin-8(7H)-one]",372 nM

# Further lines, results first:
row,IC50,SMILES
1,213 nM,"CCc1ccccc1CSc1nnc2c(=O)n(-c3cccc(Cl)c3C)ccn12 [Compound 35, 7-(3-chloro-2-methylphenyl)-3-(2-ethylbenzylthio)-[1,2,4]triazolo[4,3-a]pyrazin-8(7H)-one]"
2,147 nM,"Cc1c(Cl)cccc1-n1ccn2c(SCc3ccccc3-c3cccnc3)nnc2c1=O [Compound 36, 7-(3-chloro-2-methylphenyl)-3-(2-(pyridin-3-yl)benzytthio)-[1,2,4]triazolo[4,3-a]pyrazin-8(7H)-one]"
3,97.4 nM,"Cc1c(Cl)cccc1-n1ccn2c(SCc3ccccc3-c3ccco3)nnc2c1=O [Compound 37, 7-(3-chloro-2-methylphenyl)-3-(2-(furan-2-yl)benzylthio)-[1,2,4]triazolo[4,3-a]pyrazin-8(7H)-one]"
4,45.8 nM,"Cc1c(Cl)cccc1-n1ccn2c(SCc3ccccc3-c3cccs3)nnc2c1=O [Compound 40, 7-(3-chloro-2-methylphenyl)-3-(2-(thiophen-2-yl)benzylthio)-[1,2,4]triazolo[4,3-a]pyrazin-8(7H)-one]"
5,170 nM,"Cc1c(Cl)cccc1-n1ccn2c(SCc3ccccc3COc3ccccc3)nnc2c1=O [Compound 42, 7-(3-chloro-2-methylphenyl)-3-(2-(phenoxymethyl)benzylthio)-[1,2,4]triazolo[4,3-a]pyrazin-8(7H)-one]"
6,233 nM,"Cc1c(Cl)cccc1-n1ccn2c(SCc3ccccc3CS(=O)(=O)c3ccccc3)nnc2c1=O [Compound 43, 7-(3-chloro-2-methylphenyl)-3-(2-(phenylsulfonylmethyl)benzylthio)-[1,2,4]triazolo[4,3-a]pyrazin-8(7H)-one]"
7,553 nM,Cc1c(Cl)cccc1-n1ccn2c(SCc3ccccc3CCc3ccccc3)nnc2c1=O [Compound 44]
8,176 nM,"Cc1c(Cl)cccc1-n1ccn2c(SCc3ccccc3Cc3ccccc3)nnc2c1=O [Compound 45, 3-(2-benzylbenzylthio)-7-(3-chloro-2-methylphenyl)-[1,2,4]triazolo[4,3-a]pyrazin-8(7H)-one]"
9,3500 nM,"Cc1c(Cl)cccc1-n1ccn2c(SCc3cccc(-c4ccccc4)c3)nnc2c1=O [Compound 46, 3-(biphenyl-3-ylmethylthio)-7-(3-chloro-2-methylphenyl)-[1,2,4]triazolo[4,3-a]pyrazin-8(7H)-one]"

# Reference: US20130196986A1 (priority 2010, published 2013)
